Experimental data taken from the NIST ThermoML archive (doi:10.1021/je900550v).
± gives the expanded uncertainty stated by the source.

Conditions: 101.33 kPa, Liquid; for speed of sound: Pulse-echo method; for mass density: Vibrating tube method

CCC(=O)[O-].C[NH2+]CCO [2-hydroxy-N-methylethanaminium propionate]
speed of sound (322.91 K): 1616.7 ± 2.1 m/s
mass density (322.91 K): 1054.99 ± 2.2 kg/m3
viscosity (323.15 K): 55.1 ± 1.4 mPa·s
speed of sound (323.16 K): 1616 ± 2.1 m/s
mass density (323.16 K): 1054.82 ± 2.2 kg/m3
speed of sound (323.41 K): 1615.2 ± 2.1 m/s
mass density (323.41 K): 1054.65 ± 2.2 kg/m3
speed of sound (323.65 K): 1614.5 ± 2.1 m/s
mass density (323.65 K): 1054.48 ± 2.2 kg/m3
speed of sound (323.91 K): 1613.7 ± 2.1 m/s
mass density (323.91 K): 1054.31 ± 2.2 kg/m3
speed of sound (324.16 K): 1613 ± 2.1 m/s
mass density (324.16 K): 1054.15 ± 2.2 kg/m3
speed of sound (324.41 K): 1612.2 ± 2.1 m/s
mass density (324.41 K): 1053.97 ± 2.2 kg/m3
speed of sound (324.65 K): 1611.4 ± 2.1 m/s
mass density (324.65 K): 1053.81 ± 2.2 kg/m3
speed of sound (324.9 K): 1610.7 ± 2.1 m/s
mass density (324.9 K): 1053.64 ± 2.2 kg/m3
speed of sound (325.16 K): 1609.9 ± 2.1 m/s
mass density (325.16 K): 1053.47 ± 2.2 kg/m3
speed of sound (325.4 K): 1609.2 ± 2.1 m/s
mass density (325.4 K): 1053.3 ± 2.2 kg/m3
speed of sound (325.66 K): 1608.4 ± 2.1 m/s
mass density (325.66 K): 1053.13 ± 2.2 kg/m3
speed of sound (325.9 K): 1607.7 ± 2.1 m/s
mass density (325.9 K): 1052.96 ± 2.2 kg/m3
speed of sound (326.16 K): 1606.9 ± 2.1 m/s
mass density (326.16 K): 1052.79 ± 2.2 kg/m3
speed of sound (326.41 K): 1606.2 ± 2.1 m/s
mass density (326.41 K): 1052.62 ± 2.2 kg/m3
speed of sound (326.66 K): 1605.4 ± 2.1 m/s
mass density (326.66 K): 1052.45 ± 2.2 kg/m3
speed of sound (326.9 K): 1604.7 ± 2.1 m/s
mass density (326.9 K): 1052.29 ± 2.2 kg/m3
speed of sound (327.16 K): 1603.9 ± 2.1 m/s
mass density (327.16 K): 1052.12 ± 2.2 kg/m3
speed of sound (327.4 K): 1603.2 ± 2.1 m/s
mass density (327.4 K): 1051.94 ± 2.2 kg/m3
speed of sound (327.66 K): 1602.4 ± 2.1 m/s
mass density (327.66 K): 1051.78 ± 2.2 kg/m3
speed of sound (327.9 K): 1601.7 ± 2.1 m/s
mass density (327.9 K): 1051.61 ± 2.2 kg/m3
speed of sound (328.15 K): 1600.9 ± 2.1 m/s
mass density (328.15 K): 1051.44 ± 2.2 kg/m3
speed of sound (328.41 K): 1600.2 ± 2.1 m/s
mass density (328.41 K): 1051.27 ± 2.2 kg/m3
speed of sound (328.66 K): 1599.4 ± 2.1 m/s
mass density (328.66 K): 1051.1 ± 2.2 kg/m3
speed of sound (328.9 K): 1598.6 ± 2.1 m/s
mass density (328.9 K): 1050.93 ± 2.2 kg/m3
speed of sound (329.16 K): 1597.9 ± 2.1 m/s
mass density (329.16 K): 1050.76 ± 2.2 kg/m3
speed of sound (329.4 K): 1597.1 ± 2.1 m/s
mass density (329.4 K): 1050.59 ± 2.2 kg/m3
speed of sound (329.65 K): 1596.4 ± 2.1 m/s
mass density (329.65 K): 1050.42 ± 2.2 kg/m3
speed of sound (329.9 K): 1595.6 ± 2.1 m/s
mass density (329.9 K): 1050.24 ± 2.2 kg/m3
speed of sound (330.16 K): 1594.9 ± 2.1 m/s
mass density (330.16 K): 1050.07 ± 2.2 kg/m3
speed of sound (330.41 K): 1594.1 ± 2.1 m/s
mass density (330.41 K): 1049.9 ± 2.2 kg/m3
speed of sound (330.66 K): 1593.3 ± 2.1 m/s
mass density (330.66 K): 1049.73 ± 2.2 kg/m3
speed of sound (330.91 K): 1592.6 ± 2.1 m/s
mass density (330.91 K): 1049.56 ± 2.2 kg/m3
speed of sound (331.16 K): 1591.8 ± 2.1 m/s
mass density (331.16 K): 1049.39 ± 2.2 kg/m3
speed of sound (331.41 K): 1591.1 ± 2.1 m/s
mass density (331.41 K): 1049.22 ± 2.2 kg/m3
speed of sound (331.66 K): 1590.3 ± 2.1 m/s
mass density (331.66 K): 1049.05 ± 2.2 kg/m3
speed of sound (331.91 K): 1589.5 ± 2.1 m/s
mass density (331.91 K): 1048.88 ± 2.2 kg/m3
speed of sound (332.16 K): 1588.8 ± 2.1 m/s
mass density (332.16 K): 1048.71 ± 2.2 kg/m3
speed of sound (332.41 K): 1588 ± 2.1 m/s
mass density (332.41 K): 1048.54 ± 2.2 kg/m3
speed of sound (332.66 K): 1587.3 ± 2.1 m/s
mass density (332.66 K): 1048.36 ± 2.2 kg/m3
speed of sound (332.91 K): 1586.5 ± 2.1 m/s
mass density (332.91 K): 1048.19 ± 2.2 kg/m3
speed of sound (333.16 K): 1585.7 ± 2.1 m/s
mass density (333.16 K): 1048.02 ± 2.2 kg/m3
speed of sound (333.41 K): 1585 ± 2.1 m/s
mass density (333.41 K): 1047.85 ± 2.2 kg/m3
speed of sound (333.66 K): 1584.2 ± 2.1 m/s
mass density (333.66 K): 1047.68 ± 2.2 kg/m3
speed of sound (333.91 K): 1583.5 ± 2.1 m/s
mass density (333.91 K): 1047.51 ± 2.2 kg/m3
speed of sound (334.16 K): 1582.7 ± 2.1 m/s
mass density (334.16 K): 1047.33 ± 2.2 kg/m3
speed of sound (334.41 K): 1582 ± 2.1 m/s
mass density (334.41 K): 1047.16 ± 2.2 kg/m3
speed of sound (334.66 K): 1581.2 ± 2.1 m/s
mass density (334.66 K): 1046.99 ± 2.2 kg/m3
speed of sound (334.91 K): 1580.5 ± 2.1 m/s
mass density (334.91 K): 1046.82 ± 2.2 kg/m3
speed of sound (335.16 K): 1579.7 ± 2.1 m/s
mass density (335.16 K): 1046.64 ± 2.2 kg/m3
speed of sound (335.41 K): 1579 ± 2.1 m/s
mass density (335.41 K): 1046.47 ± 2.2 kg/m3
speed of sound (335.66 K): 1578.2 ± 2.1 m/s
mass density (335.66 K): 1046.3 ± 2.2 kg/m3
speed of sound (335.91 K): 1577.5 ± 2.1 m/s
mass density (335.91 K): 1046.13 ± 2.2 kg/m3
speed of sound (336.16 K): 1576.7 ± 2.1 m/s
mass density (336.16 K): 1045.95 ± 2.2 kg/m3
speed of sound (336.41 K): 1576 ± 2.1 m/s
mass density (336.41 K): 1045.78 ± 2.2 kg/m3
speed of sound (336.66 K): 1575.2 ± 2.1 m/s
mass density (336.66 K): 1045.61 ± 2.2 kg/m3
speed of sound (336.9 K): 1574.4 ± 2.1 m/s
mass density (336.9 K): 1045.44 ± 2.2 kg/m3
speed of sound (337.16 K): 1573.7 ± 2.1 m/s
mass density (337.16 K): 1045.27 ± 2.2 kg/m3
speed of sound (337.4 K): 1572.9 ± 2.1 m/s
mass density (337.4 K): 1045.09 ± 2.2 kg/m3
speed of sound (337.66 K): 1572.1 ± 2.1 m/s
mass density (337.66 K): 1044.92 ± 2.2 kg/m3
speed of sound (337.9 K): 1571.3 ± 2.1 m/s
mass density (337.9 K): 1044.75 ± 2.2 kg/m3
speed of sound (338.15 K): 1570.6 ± 2.1 m/s
mass density (338.15 K): 1044.58 ± 2.2 kg/m3
